Measurements: PubChem BioAssay AID1963849 (Molecular Pharmacology Branch, DTP, NCI, 2024)
pIC50: −log10 of the molar value. Values joined by “and” are separate entries in the source; they are usually repeats but may differ in a detail not shown here. Equal values may be shown once.

Tested on: 299254-011-R-J1-PDC complex spheroid viability
Test: Anticancer human tumor 299254-011-R-J1-PDC patient-derived melanoma cell line growth inhibition [POLQ]
Conditions: for viability, T/C: stronger effect = lower value; for pIC50: curve of compound
Experimental: Multicellular complex tumor spheroid response to Polymerase (POL) inhibitors (novobiocin, ART-558, RP6685) in combination with a variety of drugs and investigational agents in selected tumor cell lines
The POL inhibitors (novobiocin, ART-558, and RP6685) were evaluated both individually and in combination with standard of care and investigational anticancer small molecules within a complex spheroid model of solid tumors. . Complex spheroids include a stromal component modeled by human endothelial cells (HUVEC) and fibroblasts modeled by human mesenchymal stem cells (MSCs). The concentration ranges selected for each drug and investigational agent were based upon clinically achievable concentrations if the clinical Cmax of the agent was known.
Compounds. The drugs and investigational agents: novobiocin (NSC847541), ART-558 (NSC835418), RP-6685 (NSC848927), peposertib (NSC802822), ceralasertib (NSC780249), elimusertib (NSC800525), camonsertib (NSC841442), AZD-1390 (NSC803789), olaparib (NSC753686), talazoparib (NSC767125), rucaparib (NSC756644), sotorasib (NSC818433), MRTX-1133 (NSC836407), SN-38 (NSC673596), topotecan (NSC609699), epotoside (NSC141540), doxorubicin (NSC123127), gemcitabine (NSC613327), 5-fluorouracil (NSC19893), paclitaxel (NSC125973), vemurafenib (NSC761431), MSA-2 (NSC828583), SN-011 (NSC837082), adavosertib (NSC754352), prexasertib (NSC758257), carboplatin (NSC241240) and oxaliplatin (NSC266046), were obtained from the National Cancer Institute (NCI) Developmental Therapeutics Program Chemical Repository (21). The FDA-approved anticancer drug set is available from the Developmental Therapeutics Program at https://dtp.cancer.gov/organization/dscb/obtaining/. […] The stock solutions were prepared in dimethyl sulfoxide (DMSO, Sigma-Aldrich, St. Louis, MO, cat. D2650), except for the platinum compounds which were prepared in saline (Quality Biological, Gaithersburg, MD, cat. 114-055-101), at 800-fold the tested concentration and stored at -70 degrees C prior to their use. All drugs and investigational agents were tested over a range starting from a high concentration at or near the clinical Cmax and decreasing in half-log increments. If the clinical Cmax for an agent had not been determined, the highest concentration tested was 10 microM, except for SN-38, which was tested at a high concentration of 1 microM.
Cell Culture. All cells were maintained in an incubator at 37 degrees C and 5% CO2 with 95% humidity. The PDC lines were cultured according to standard operating procedures established by the NCI PDMR (https://pdmr.cancer.gov). Table 3 of the manuscript, lists the cell lines along with the number of the three cell types plated to form the mct-spheroids and media for tumor cell growth. After thawing, all PDC lines, except 997537-175-T-J1-PDC and 415267-285-R-J2-PDC, were cultured in Matrigel-coated flasks prepared with a working solution of 1X Ham's F-12 nutrient mix, without supplementation (Thermo Fisher Scientific, cat. 11765054), 100 U/mL penicillin-streptomycin (Thermo Fisher Scientific, cat. 15140122), and 2.5% Matrigel (Corning Inc., Corning, NY, cat. 354248) for the first three passages. The two PDC lines 997537-175-T-J1-PDC and 415267-285-R-J2-PDC were cultured on uncoated flasks. The 857933-349-R-J2-PDC line was cultured in 6C/Colon 1B media containing advanced DMEM/F-12 (Thermo Fisher Scientific, cat. 12634028), 10 mM HEPES (Thermo Fisher Scientific, cat. 15630080), 1X GlutaMAX supplement (Thermo Fisher Scientific, cat. 35050061), 0.1 mg/mL primocin (InvivoGen, San Diego, CA, cat. ant-pm-2), 10% defined fetal bovine serum, heat inactivated (HyClone Laboratories Inc., Logan, UT, cat. SH30070.03HI), 50% L-WRN conditioned media (ATCC, cat. CRL-3276), 1.25 mM N-Acetyl-L-cysteine (Sigma-Aldrich, cat. A9165), 10 mM nicotinamide (Sigma-Aldrich, cat. N0636), 1X B-27 supplement (Thermo Fisher Scientific, cat. 17504044), 1X N-2 supplement (Thermo Fisher Scientific, cat. […]
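Note: spheroids exposed to drugs for one week before measurement.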
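Throughout, for viability, T/C: percent viability relative to DMSO vehicle control taken as 100%.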

Row | Structure (SMILES) | viability, T/C (compound 0.0316 µM) | viability, T/C (compound 0.1 µM) | viability, T/C (compound 0.316 µM) | viability, T/C (compound 1 µM) | viability, T/C (compound 3.16 µM) | viability, T/C (compound 10 µM) | pIC50 | viability, T/C (compound 0.000316 µM) | viability, T/C (compound 0.001 µM) | viability, T/C (compound 0.00316 µM) | viability, T/C (compound 0.01 µM)
1 | CC1COCCN1c1cc(C2(O)CC3CCC(C2)O3)c2cnn(-c3ccn[nH]3)c2n1 (centres undefined) | 84.1% and 85.2% and 80.8% | 66.5% and 64.7% and 57.4% | 34.4% and 36.9% and 39.6% | 26.3% and 17.9% and 25.1% | 14.4% and 15.1% and 20.3% | 8.87% and 10.7% and 12.4% | 6.72 and 6.74 and 6.80 | – | – | – | –
2 | CC1COCCN1c1cc(C2(S(C)(=N)=O)CC2)nc(-c2ccnc3[nH]ccc23)n1 (centres undefined) | 92.2% and 108% and 93.8% | 101% and 108% and 94.5% | 106% and 104% and 111% | 85.5% and 84.5% and 95% | 57.9% and 60.5% and 65.8% | 41.8% and 43.3% and 37.2% | 5.27 and 5.20 and 5.22 | – | – | – | –
3 | CCCS(=O)(=O)Nc1ccc(F)c(C(=O)c2c[nH]c3ncc(-c4ccc(Cl)cc4)cc23)c1F | 114% and 106% and 96.5% | 99.7% and 109% and 112% | 118% and 95.7% and 123% | 102% and 122% and 117% | 109% and 107% and 120% | 50.6% and 47.5% and 69.2% | < 5.00 and 5.02 | – | – | – | –
4 | CC[C@@]1(O)C(=O)OCc2c1cc1n(c2=O)Cc2cc3c(CN(C)C)c(O)ccc3nc2-1 | 107% and 108% and 94.4% | 78.4% and 81.1% and 72.7% | – | – | – | – | < 7.00 | 98.9% and 101% and 112% | 94.2% and 113% and 101% | 106% and 89.5% and 111% | 103% (2×) and 114%
5 | CCc1c2c(nc3ccc(O)cc13)-c1cc3c(c(=O)n1C2)COC(=O)[C@]3(O)CC | 75.9% and 72.8% and 82% | 67.9% and 81.2% and 60.7% | 69.4% and 75.8% and 59.4% | 51.7% and 59.2% and 59.4% | – | – | < 6.00 | – | – | 94.6% and 92.7% and 99.2% | 89.3% and 93.2% and 77.9%
6 | CCc1cc2c(N3CCc4c(cc(Cn5ccnc5)cc4-c4cn(C)nc4C(F)(F)F)C3=O)cc(C)nc2c(OC)n1 | 131% and 104% and 92.7% | 90.2% and 96.5% and 106% | 118% and 92.2% and 99.7% | 99.2% and 94.1% and 99.4% | 103% and 86.5% and 90.4% | 59.6% and 62.7% and 67.7% | < 5.00 | – | – | – | –
7 | CCc1cc2c(N3CCc4c(cc(Cn5ccnc5)cc4-c4cn(C)nc4C(F)(F)F)C3=O)ccnc2c(OC)n1 | 97% and 108% and 110% | 105% and 116% and 102% | 96.3% and 113% and 109% | 93.1% and 100% and 93.5% | 98% and 90.8% and 98.3% | 84.2% and 82% and 82.5% | < 5.00 | – | – | – | –
